Assay results reported in patent publication US9615576B2, “Pesticidal compositions and processes related thereto” (Dow AgroSciences LLC, priority 2011, dated 2017).

What was measured:
[1] = system: Beet Armyworm (BAW) (Spodoptera exigua); assay: Bioassays on Beet Armyworm (BAW), 128-well diet tray assay; format: in vivo; settings: 168 h, 50 μg/cm^2 test compound on artificial diet, second instar larvae, 25° C., five to seven days, average of eight wells, read-out: BAW Rating (% mortality)
Experimental: (§1) Certain molecules disclosed in this document were tested against BAW and CEW using procedures described in the following examples. In the reporting of the results, the “BAW & CEW Rating Table” was used (See Table Section).
Bioassays on BAW (Spodoptera exigua)
Bioassays on BAW were conducted using a 128-well diet tray assay. one to five second instar BAW larvae were placed in each well (3 mL) of the diet tray that had been previously filled with 1 mL of artificial diet to which 50 μg/cm^2 of the test compound (dissolved in 50 μL of 90:10 acetone-water mixture) had been applied (to each of eight wells) and then allowed to dry. Trays were covered with a clear self-adhesive cover, and held at 25° C., 14:10 light-dark for five to seven days. Percent mortality was recorded for the larvae in each well; activity in the eight wells was then averaged. The results are indicated in the table entitled “Table 3: Assay Results” (See Table Section).

[2] = system: Corn Earworm (CEW) (Helicoverpa zea); assay: Bioassays on Corn Earworm (CEW), 128-well diet tray assay; format: in vivo; settings: 168 h, 50 μg/cm^2 test compound on artificial diet, second instar larvae, 25° C., five to seven days, average of eight wells, read-out: CEW Rating (% mortality)
Experimental: as §1
Bioassays on CEW (Helicoverpa zea)
Bioassays on CEW were conducted using a 128-well diet tray assay. one to five second instar CEW larvae were placed in each well (3 mL) of the diet tray that had been previously filled with 1 mL of artificial diet to which 50 μg/cm^2 of the test compound (dissolved in 50 μL of 90:10 acetone-water mixture) had been applied (to each of eight wells) and then allowed to dry. Trays were covered with a clear self-adhesive cover, and held at 25° C., 14:10 light-dark for five to seven days. Percent mortality was recorded for the larvae in each well; activity in the eight wells was then averaged. The results are indicated in the table entitled “Table 3: Assay Results” (See Table Section).

**Q.** What does the source list for `Cc1cc(/C=C/C(c2cc(Cl)cc(Cl)c2)C(F)(F)F)ccc1C(=O)NC(C)c1ccc(Cl)nc1` (stereo not shown) [AC44]?
**A.** mortality at 50 µg/cm2 [1]: 50 to 100%; mortality at 50 µg/cm2 [2]: 50 to 100%

**Q.** Which results are given for `Cc1cc(/C=C/C(c2cc(Cl)cc(Cl)c2)C(F)(F)F)ccc1C(=O)NN(C)c1ccccc1F` (stereo not shown) [AC45]?
**A.** mortality at 50 µg/cm2 [1]: 50 to 100%; mortality at 50 µg/cm2 [2]: 50 to 100%

**Q.** `O=C(NCc1ccc(Cl)nc1)c1ccc(/C=C/C(c2cc(Cl)cc(Cl)c2)C(F)(F)F)cc1Br` (stereo not shown) [AC46] was tested. Which mortality at 50 µg/cm2 [1] did it give?
**A.** 50 to 100%

**Q.** And the mortality at 50 µg/cm2 [2]?
**A.** 50 to 100%

**Q.** `Cc1cc(/C=C/C(c2cc(Cl)cc(Cl)c2)C(F)(F)F)ccc1C(=O)NCC(=O)NNC(=O)C1CC1` (stereo not shown) [AC47] was tested. Which mortality at 50 µg/cm2 [1] did it give?
**A.** 0%

**Q.** What about the mortality at 50 µg/cm2 [2] of the same compound?
**A.** 0%

**Q.** How did the mortality at 50 µg/cm2 [1] turn out when `Cc1cc(/C=C/C(c2cc(Cl)cc(Cl)c2)C(F)(F)F)ccc1C(=O)NCc1ccc(Cl)cc1` (stereo not shown) [AC48] was run?
**A.** 50 to 100%

**Q.** What about the mortality at 50 µg/cm2 [2] of the same compound?
**A.** 50 to 100%

**Q.** Which mortality at 50 µg/cm2 [1] does the source give for `O=C(NCc1ccc(Cl)nc1)c1ccc(/C=C/C(c2cc(Cl)cc(Cl)c2)C(F)(F)F)cc1F` (stereo not shown) [AC49] here?
**A.** 50 to 100%

**Q.** What about the mortality at 50 µg/cm2 [2] of the same compound?
**A.** 50 to 100%

**Q.** Which results are given for `Cc1cc(/C=C/C(c2cc(Cl)cc(Cl)c2)C(F)(F)F)ccc1C(=O)NCc1nccn1C` (stereo not shown) [AC50]?
**A.** mortality at 50 µg/cm2 [1]: 50 to 100%; mortality at 50 µg/cm2 [2]: 0%

**Q.** `Cc1cc(/C=C/C(c2cc(Cl)cc(Cl)c2)C(F)(F)F)ccc1C(=O)NCC(=O)N(C)CC(F)(F)F` (stereo not shown) [AC51] was tested. Which mortality at 50 µg/cm2 [1] did it give?
**A.** 50 to 100%

**Q.** What about the mortality at 50 µg/cm2 [2] of the same compound?
**A.** 50 to 100%

**Q.** With `Cc1cc(/C=C/C(c2cc(Cl)c(F)c(Cl)c2)C(F)(F)F)ccc1C(=O)NC1CCOCC1` (stereo not shown) [AC52] as the compound, how does the mortality at 50 µg/cm2 [1] read?
**A.** 50 to 100%

**Q.** What about the mortality at 50 µg/cm2 [2] of the same compound?
**A.** 50 to 100%

**Q.** For `Cc1cc(/C=C/C(c2cc(Cl)c(F)c(Cl)c2)C(F)(F)F)ccc1C(=O)NCc1ccc(Cl)cn1` (stereo not shown) [AC53], which mortality at 50 µg/cm2 [1] is on record?
**A.** 50 to 100%

**Q.** What about the mortality at 50 µg/cm2 [2] of the same compound?
**A.** 50 to 100%

**Q.** For `Cc1cc(/C=C/C(c2cc(Cl)c(F)c(Cl)c2)C(F)(F)F)ccc1C(=O)NCc1ccnc(Cl)c1` (stereo not shown) [AC54], which mortality at 50 µg/cm2 [1] is on record?
**A.** 50 to 100%

**Q.** What about the mortality at 50 µg/cm2 [2] of the same compound?
**A.** 50 to 100%

**Q.** `O=C(CNC(=O)c1ccc(/C=C/C(c2cc(Cl)cc(Cl)c2)C(F)(F)F)cc1Cl)NCC(F)(F)F` (stereo not shown) [AC57] was tested. Which mortality at 50 µg/cm2 [1] did it give?
**A.** 50 to 100%

**Q.** What about the mortality at 50 µg/cm2 [2] of the same compound?
**A.** 50 to 100%

**Q.** `CC(C)(C)OC(=O)CNC(=O)c1ccc(/C=C/C(c2cc(Cl)c(Cl)c(Cl)c2)C(F)(F)F)cc1Br` (stereo not shown) [AC58] was tested. Which mortality at 50 µg/cm2 [1] did it give?
**A.** 50 to 100%

**Q.** And the mortality at 50 µg/cm2 [2]?
**A.** 50 to 100%

**Q.** With `Cc1cc(/C=C/C(c2cc(Cl)cc(Cl)c2)C(F)(F)F)ccc1C(=O)Nc1ccc(Cl)nc1` (stereo not shown) [AC59] as the compound, how does the mortality at 50 µg/cm2 [1] read?
**A.** 50 to 100%

**Q.** And the mortality at 50 µg/cm2 [2]?
**A.** 50 to 100%

**Q.** Which results are given for `Cc1cc(/C=C/C(c2cc(Cl)cc(Cl)c2)C(F)(F)F)cnc1C(=O)NCc1ccc(Cl)nc1` (stereo not shown) [AC60]?
**A.** mortality at 50 µg/cm2 [1]: 50 to 100%; mortality at 50 µg/cm2 [2]: 50 to 100%

**Q.** What does the source list for `O=C(NC1CSC1)c1ccc(/C=C/C(c2cc(Cl)cc(Cl)c2)C(F)(F)F)cc1F` (stereo not shown) [AC61]?
**A.** mortality at 50 µg/cm2 [1]: 50 to 100%; mortality at 50 µg/cm2 [2]: 50 to 100%

**Q.** For `O=C(CNC(=O)c1ccc(/C=C/C(c2cc(Cl)cc(Cl)c2)C(F)(F)F)cc1F)NCC(F)(F)F` (stereo not shown) [AC62], which mortality at 50 µg/cm2 [1] is on record?
**A.** 50 to 100%

**Q.** And the mortality at 50 µg/cm2 [2]?
**A.** 50 to 100%

**Q.** Which mortality at 50 µg/cm2 [1] does the source give for `O=C(NCc1ccc(Cl)nc1)c1ccc(/C=C/C(c2cc(Cl)c(F)c(Cl)c2)C(F)(F)F)cc1Br` (stereo not shown) [AC63] here?
**A.** 50 to 100%

**Q.** What about the mortality at 50 µg/cm2 [2] of the same compound?
**A.** 50 to 100%

**Q.** How did the mortality at 50 µg/cm2 [1] turn out when `O=C(CNC(=O)c1ccc(/C=C/C(c2cc(Cl)c(Cl)c(Cl)c2)C(F)(F)F)cc1Cl)NCC(F)(F)F` (stereo not shown) [AC64, (E)-2-chloro-N-(2-oxo-2-((2,2,2-trifluoroethyl)amino)ethyl)-4-(4,4,4-trifluoro-3-(3,4,5-trichlorophenyl)but-1-en-1-yl)benzamide] was run?
**A.** 50 to 100%

**Q.** And the mortality at 50 µg/cm2 [2]?
**A.** 50 to 100%

**Q.** With `O=C(NCc1ccc(Cl)nc1)c1ccc(/C=C/C(c2cc(Cl)c(F)c(Cl)c2)C(F)(F)F)cc1F` (stereo not shown) [AC65] as the compound, how does the mortality at 50 µg/cm2 [1] read?
**A.** 50 to 100%

**Q.** And the mortality at 50 µg/cm2 [2]?
**A.** 50 to 100%

**Q.** What does the source list for `O=C(CNC(=O)c1ccc(/C=C/C(c2cc(Cl)c(Cl)c(Cl)c2)C(F)(F)F)cc1Br)NCC(F)(F)F` (stereo not shown) [AC66]?
**A.** mortality at 50 µg/cm2 [1]: 50 to 100%; mortality at 50 µg/cm2 [2]: 50 to 100%

**Q.** Which results are given for `O=C(NC1CSC1)c1ccc(/C=C/C(c2cc(Cl)c(F)c(Cl)c2)C(F)(F)F)cc1F` (stereo not shown) [AC67]?
**A.** mortality at 50 µg/cm2 [1]: 50 to 100%; mortality at 50 µg/cm2 [2]: 50 to 100%

**Q.** What does the source list for `O=C(CNC(=O)c1ccc(/C=C/C(c2cc(Cl)c(F)c(Cl)c2)C(F)(F)F)cc1F)NCC(F)(F)F` (stereo not shown) [AC68]?
**A.** mortality at 50 µg/cm2 [1]: 50 to 100%; mortality at 50 µg/cm2 [2]: 50 to 100%
